Data on 21 compounds can be found in PMC7459852, “Identification of 6-(piperazin-1-yl)-1,3,5-triazine as a chemical scaffold with broad anti-schistosomal activities” (Wellcome Open Research, 2020).

Read-outs that look alike come from different tables or passages of the source. Bounds are passed on as bounds.

Data set [1] deals with schistosomula and adult schistosomes. Details: method as in PMID 31730617. The following applies: SGC collection tested by the authors' laboratory; cited from earlier work.
A further data set deals with S. mansoni schistosomula. Put plainly: Schistosomula screens (Roboworm, phenotype and motility). The format is cell-based, Schistosoma mansoni. The conditions noted are these: 72 h; for EC50: Schistosoma mansoni. On the procedure: Anthelmintic activity on the schistosomula stage of S. mansoni was evaluated using Roboworm, an integrated high-throughput, high content image analysis platform originally developed by Paveley et al. and subsequently used by our research group as previously described, [28], [50], [51]. Alternatively, the computer application Worminator can be used to assess motion of microscopic parasites such as the schistosomula stage of S. mansoni. Compounds (as single concentration or two-fold titrations) were prepared for screening in a 384-well plate (PerkinElmer, MA, USA), where solutions (1.6 mM, 0.5 μl) were wet stamped using the Biomek NX ^P liquid handling platform into Basch medium (20 μl). Negative (0.625% DMSO) and positive (Auranofin - AUR - at 10 µM final concentration in 0.625% DMSO) control wells were similarly prepared. Mechanically transformed schistosomula (about 120 parasites in 60 μl of Basch medium) were distributed into each treated well using a WellMate (Thermo Scientific, Loughborough, UK). Schistosomula/compound co-cultures were then incubated at 37°C for 72 h in a humidified atmosphere containing 5% CO 2. At 72 h, parasite/compound co-cultures were resuspended and tissue culture plates were imaged under the same conditions (37°C for 72 h in a humidified atmosphere containing 5% CO 2) using an ImageXpressXL high content imager (Molecular Devices, UK) with subsequent images processed for phenotype and motility as previously reported. Plate analysis returned a phenotype and motility score for each well and any scores below -0.15 and -0.35 (defined threshold anti-schistosomula values for phenotype and motility scores, respectively) defined a condition displaying anti-schistosomula activity. Compound screens were assessed based on the Z´ values (derived from the means and standard deviations of positive and negative controls) and those equal to or above 0.3 for both phenotype and motility were considered successful.
Phenotype and motility scores of each titration were used to generate dose response curves in GraphPad Prism 7.02 based on the corrected average score of the three replicates for each data point.

For the next data set, the system named is S. mansoni adult worms. As to the kind of experiment: Adult worm screens (WormassayGP2 motility, egg count). The format is cell-based, Schistosoma mansoni. The conditions noted are these: 12.5 µM, 72 h. On the procedure:
For compound screening, adult worms (three worm pairs/well for compound 7 and the hit compounds of set two; one worm pair/well for the hit compounds of set three) were transferred into wells of a 48-well tissue culture plate containing 1 ml of adult worm media. Adult worms were treated with compounds previously identified as hits at 10 µM on 72 h cultured schistosomula. Worms were dosed with an appropriate volume of 10 mM stock solution of each compound (in DMSO) to have a concentration range of 50 – 6.25 µM (up to 0.5% DMSO, primary screen of compound 7). Secondary screens were performed on the structural analogues of compound 7 (only the schistosomula hits at 10 µM) at a single concentration (12.5 µM) and compared to the same concentration of the parental compound (included in the screen as reference). DMSO (0.5%) and praziquantel (10 µM in 0.5% DMSO) were also included as negative and positive control treatments (both primary and secondary screens). Treated adult worms were incubated for 72 h in a humidified environment at 5% CO 2 at 37°C. Parasite motility after drug treatment was assessed by a digital image processing-based system (WormassayGP2, see Software availability) modified after Wormassay, [56], [57]. Egg production was assessed according to the methodology described by Edwards et al..

Another data set deals with S. mansoni miracidia. As to the kind of experiment: Miracidia to sporocyst transformation screens. The format is cell-based, Schistosoma mansoni. The conditions noted are these: 10 µM, 48 h. As for the experimental part:
Following hatching of S. mansoni eggs, miracidia were incubated on ice for 15 min and then centrifuged at 700 x g for 5 min at 4°C. The miracidia pellet was then re-suspended in 5 ml of Chernin's balanced salt solution (CBSS), subjected to pelleting and two subsequent washes (all at 700 x g for 5 min at 4°C). Afterwards, the supernatant was carefully removed with a serological pipette and the miracidia-enriched pellet was resuspended with CBSS supplemented with 1 mg/ml each of glucose and trehalose and 500 µl of Penicillin-Streptomycin (containing 10,000 units penicillin and 10 mg streptomycin/ml, P4333, Sigma-Aldrich). In preparation for the screens, CBSS (250 µl) was aliquoted to each well of a 24-well plate followed by addition of each compound in DMSO (1 mM concentration in 1% DMSO) or DMSO alone (1%, negative control). Next, approximately 20-25 miracidia (in 250 µl of CBSS) were aliquoted to each well. […] Both preliminary and secondary screens were performed in duplicate on two separate occasions (two independent biological replicates). Miracidia were incubated for 48 h at 26°C before being evaluated using an Olympus inverted light microscope for morphological and behavioural changes differing from the control wells. Dead, partially transformed and fully transformed miracidia were enumerated in the DMSO control and the assay plates as previously described, [23], [59]. […] Absence of ciliated plates attached to the surface of the parasite and formation of sporocyst tegument defined the so-called “fully transformed” parasites.

Data set [2] in a line: MTT cytotoxicity assay on HepG2 cells. Format: cell-based, Human. The conditions noted are these: human, HepG2 cells, MTT, 24 h; three dose response titrations (200 - 1 µM). On the procedure:
Compound cytotoxicity on Human Hepatocyte Carcinoma (HepG2) cells (85011430, Sigma Aldrich) was elucidated by the MTT (3-(4,5-dimethylthiazol-2-yl)-2,5-diphenyltetrazolium bromide) tetrazolium reduction assay as previously described, [28], [50]. Briefly, HepG2 cells were seeded at a density of 20,000 per well in 96-well black, clear bottom falcon plate in modified BME medium (50 μl; containing 1% antibiotic/mycotic (Sigma-Aldrich, Gillingham, UK), 1% 200 mM L-glutammine (Gibco, Paisley, UK), 1% MEM non-essential amino acid solution (Gibco, Paisley, UK), and 10% fetal bovine serum (Gibco, Paisley, UK)). HepG2 plates seeded for cytotoxicity screens were treated with compounds 24 h post-seeding. Each compound was tested at 200, 100, 75, 50, 20, 10 and 1 µM; each concentration was assayed in triplicate. Blank wells (no cells), as well as positive (1% v/v Triton X-100, X100, Sigma-Aldrich) and negative (1.25% v/v DMSO or media only) controls, were included in each plate. After addition of compounds, each plate was then incubated for a further 20 h before application of MTT reagent for assessment of compound cytotoxicity (4 h incubation with MTT for a total 24 h cell-drug incubation). The absorbance reading at 570 nm was measured with a POLARstar Omega (BMG Labtech, UK) microtiter plate reader. Dose response curves were generated in GraphPad Prism 7.02 based on the corrected average absorbance of the three replicates for each concentration point.
(In general: Formazan colour is commonly taken as a measure of viable cells.)

The mark [3] stands for this setting: average of phenotype and motility metrics, read-out: Schistosomula EC50 Average.
Setting [4] is: dose response titrations (10 - 0.625 µM), read-out: Schistosomula EC50 Motility.
Where [5] appears, read: dose response titrations (10 - 0.625 µM), read-out: Schistosomula EC50 Phenotype.

As a reminder, the EC50 is the midpoint of the concentration-response curve. A word on the CC50: it is the concentration giving 50% cytotoxicity.

Turning to `CCN(C(=O)CO)[C@H]1CN(/C(=N\C#N)Nc2cccc(OC(F)F)c2)N=C1c1ccc(Cl)c(Cl)c1` [BAY-598], the “activity on schistosomula and adult schistosomes” value in data set [1] is given as “potent activities”.
On to `O=C1CNC(=O)/C1=C\Nc1ccc(O)cc1` [Compound 4], for which, in the data set on S. mansoni schistosomula (50 µM), the “anti-schistosomula activity (hit on phenotype and motility)” value (“anti-schistosomula activity” below) is listed as “showed anti-schistosomal activity”; the schistosomula phenotype induced result is given as “elongated phenotype”.
As to `c1ccc(Nc2nc(Nc3ccccc3)nc(N3CCNCC3)n2)cc1` [Compound 8], the EC50 in the data set with S. mansoni schistosomula (setting [3]) worked out at 4.12 µM; in the data set on S. mansoni schistosomula (setting [4]) it was 4.98 µM; with S. mansoni schistosomula (setting [5]) it was 3.27 µM. The “adult worm egg production” value in the data set with S. mansoni adult worms is recorded as “reducing egg production similarly to compound 7”. Also, the “adult worm motility compared to compound 7” value with S. mansoni adult worms is “more potent than the original hit compound”. In addition, in the data set on S. mansoni miracidia, the effect on miracidia result was “readily killed miracidia”. The CC50 at 24 h in data set [2] is 14.9 µM.
On to `C1CN(c2nc(N3CCOCC3)nc(N3CCOCC3)n2)CCN1` [Compound 10], for which the EC50 with S. mansoni schistosomula (setting [3]), in the data set with S. mansoni schistosomula (setting [4]) and with S. mansoni schistosomula (setting [5]) was above 50 µM throughout.
In the case of `c1ccc2sc(N3CCN(c4nc(N5CCOCC5)nc(N5CCOCC5)n4)CC3)nc2c1` [Compound 11], the EC50 in the data set with S. mansoni schistosomula (setting [3]), in the data set on S. mansoni schistosomula (setting [4]) and in the data set on S. mansoni schistosomula (setting [5]) was above 50 µM throughout.
Turning to `c1ccc(CNc2nc(Nc3ccccc3)nc(N3CCNCC3)n2)cc1` [Compound 12], the EC50 in the data set with S. mansoni schistosomula (setting [3]) is 4.49 µM; in the data set with S. mansoni schistosomula (setting [4]) it was 4.41 µM; in the data set with S. mansoni schistosomula (setting [5]) it was 4.57 µM. Also, the “adult worm egg production” value in the data set with S. mansoni adult worms is listed as “reducing egg production similarly to compound 7”. Also, in the data set on S. mansoni adult worms, the “adult worm motility compared to compound 7” value is “more potent than the original hit compound”. Besides, the effect on miracidia result in the data set on S. mansoni miracidia was “readily killed miracidia”. Besides, the CC50 at 24 h in data set [2] worked out at 11 µM.
Consider `Cc1ccccc1Nc1nc(Nc2ccccc2C)nc(N2CCNCC2)n1` [Compound 13], for which the values for the EC50 in the data set with S. mansoni schistosomula (setting [3]), in the data set on S. mansoni schistosomula (setting [4]) and with S. mansoni schistosomula (setting [5]) were 4.76 µM, 4.82 µM and 4.7 µM, respectively. In addition, in the data set with S. mansoni miracidia, the effect on miracidia entry is on record as “readily killed miracidia”. This compound also had a CC50 at 24 h in data set [2] of 17.9 µM.
In the case of `Cc1ccccc1Nc1nc(N2CCNCC2)nc(N2CCOCC2)n1` [Compound 14], the “anti-schistosomula activity” value in the data set on S. mansoni schistosomula (50 µM) was “only active at 50 µM”. In addition, the EC50 in the data set with S. mansoni schistosomula (setting [3]), in the data set on S. mansoni schistosomula (setting [4]) and in the data set with S. mansoni schistosomula (setting [5]) was above 10 µM each time.
As to `Cc1ccc(Nc2nc(N3CCNCC3)nc(N3CCOCC3)n2)cc1` [Compound 15], the EC50 worked out at 1.44 µM in the data set with S. mansoni schistosomula (setting [3]), 1.79 µM in the data set with S. mansoni schistosomula (setting [4]) and 1.09 µM with S. mansoni schistosomula (setting [5]). In the data set on S. mansoni adult worms, the “adult worm egg production” value was “reducing egg production similarly to compound 7”. Moreover, in the data set on S. mansoni adult worms, the “adult worm motility compared to compound 7” value is listed as “more potent than the original hit compound”. In the data set with S. mansoni miracidia, the effect on miracidia result is “all readily killed miracidia except for compounds 15 and 16”. This compound also registered a CC50 at 24 h in data set [2] of 23.9 µM.
Take `C1CCN(c2nc(N3CCCC3)nc(N3CCNCC3)n2)C1` [Compound 17]: the “anti-schistosomula activity” value with S. mansoni schistosomula (50 µM) is given as “active at the highest concentration”. The EC50 in the data set on S. mansoni schistosomula (setting [4]) and with S. mansoni schistosomula (setting [5]) was above 10 µM throughout.
Take `O=S(=O)(c1ccc(Cl)cc1)N1CCN(c2nc(N3CCCCC3)nc(N3CCCCC3)n2)CC1` [Compound 18]: the EC50 in the data set on S. mansoni schistosomula (setting [3]), in the data set on S. mansoni schistosomula (setting [4]) and in the data set on S. mansoni schistosomula (setting [5]) was above 50 µM in each case.
In the case of `O=C(c1ccc(Cl)cc1)N1CCN(c2nc(N3CCCCC3)nc(N3CCCCC3)n2)CC1` [Compound 19], the EC50 in the data set with S. mansoni schistosomula (setting [3]), in the data set on S. mansoni schistosomula (setting [4]) and in the data set on S. mansoni schistosomula (setting [5]) was above 50 µM in each case.
As for `O=[N+]([O-])c1ccc2nc(N3CCN(c4nc(N5CCOCC5)nc(N5CCOCC5)n4)CC3)sc2c1` [Compound 21], the EC50 in the data set on S. mansoni schistosomula (setting [3]), in the data set on S. mansoni schistosomula (setting [4]) and in the data set on S. mansoni schistosomula (setting [5]) was above 50 µM each time.
Regarding `c1ccc(Nc2nc(N3CCNCC3)nc(N3CCOCC3)n2)cc1` [Compound 22], the “anti-schistosomula activity” value with S. mansoni schistosomula (50 µM) is recorded as “active at the highest concentration”. Moreover, the figures for the EC50 in the data set on S. mansoni schistosomula (setting [4]) and with S. mansoni schistosomula (setting [5]) were 1.64 µM and 2.09 µM, respectively. Also, the CC50 at 24 h in data set [2] was 93.5 µM.
Consider `Clc1cc2c(NC3CCCC3)nnc(-c3ccncc3)c2cc1Cl` [Compound A-196], for which, in data set [1], the “activity on schistosomula and adult schistosomes” value is recorded as “potent activities”.
Turning to `CCCc1cc(C)[nH]c(=O)c1CNC(=O)c1cc(-c2ccnc(N3CCN(C)CC3)c2)cc2c1cnn2C(C)C` [GSK343], the “activity on schistosomula and adult schistosomes” value in data set [1] was “potent activities”.
`COc1cc(C(=O)N2CC[C@@H](O)[C@@H](N)C2)cc2nc(-c3cc4ccccc4n3CC3CC3)n(C)c12` [GSK484]: in data set [1], the “activity on schistosomula and adult schistosomes” value is “potent activities”.
For `CCOC(=O)CCNc1cc(N2CCc3ccccc3CC2)nc(-c2ccccn2)n1` [GSK-J4], in data set [1], the “activity on schistosomula and adult schistosomes” value is “potent activities”.
Turning to `Cc1cn(CCN2CCN(c3ccccc3-c3cc(C#N)cc(C(=O)NCCCN4CCCC4)c3)CC2)c2ccccc12` [LLY-507], the “activity on schistosomula and adult schistosomes” value in data set [1] is “potent activities”.
For `CC(C)Oc1ccc(-c2c[nH]cc2CN(C)CCN)cc1` [MS023], the “activity on schistosomula and adult schistosomes” value in data set [1] is listed as “potent activities”.
For `CCCc1cc(C)[nH]c(=O)c1CNC(=O)c1cc(-c2ccc(N3CCN(C(C)C)CC3)nc2)cc2c1cnn2C(C)C` [UNC1999], the “activity on schistosomula and adult schistosomes” value in data set [1] is “potent activities”.
